Source: patent EP4707280A1, “1,4-CINEOLE DERIVATIVE AND INTERMEDIATE THEREOF, HERBICIDE CONTAINING SAID DERIVATIVE AS ACTIVE INGREDIENT, METHOD FOR USING HERBICIDE, AND METHOD FOR PREPARING AGROCHEMICAL COMPOSITION” (HOKKO CHEMICAL INDUSTRY CO., LTD., priority 2023, dated 2024)

Columns and labels:
Assay type in all cases: in vivo
Echinochloa crus-galli [1] = assay: Test Example 4: herbicidal effect test by stem and leaf treatment in upland field; conditions: Echinochloa crus-galli; 120 g per 10 ares; sprayed seven days after sowing, upland soil; 14 days after application; read-out: weed inhibition rate
[2] = tested on: Echinochloa crus-galli var. formosensis; assay: Test Example 1: herbicidal effect test by soil application in paddy rice; conditions: Echinochloa crus-galli, soil, 336 h; 120 g active ingredient per 10 ares; applied immediately after sowing, flooded pots; 14 days after application; read-out: weed inhibition rate
Experimental: Wagner pots with an area of […] were filled with paddy soil, followed by addition of water and incorporation of chemical fertilizer (N:P:K = 16:16:16), after which puddling was performed. After that, seeds of Echinochloa crus-galli var. formosensis, broad-leaved weeds ([…] Monochoria vaginalis), and Scirpus juncoides were sown at a depth of 0 cm to 1 cm, 30 seeds each. Immediately after sowing, the pots were flooded and a water depth of approximately 3 cm was maintained. Subsequent management was conducted in a glass greenhouse. Immediately thereafter, an emulsifiable concentrate prepared according to Formulation Example 5 using the compound shown below was diluted with water, and a specified amount of the diluted solution was applied by dropper. The amount of the active ingredient to be applied was equivalent to 120 g per 10 ares.

[3] = tested on: Echinochloa crus-galli var. formosensis; assay: Test Example 2: herbicidal effect test by application during growth period of paddy rice; conditions: Echinochloa crus-galli; 120 g per 10 ares; applied seven days after sowing, flooded pots; 14 days after application; read-out: weed inhibition rate
Experimental: (§1) The present test was conducted in duplicate for each chemical concentration group, and the weed inhibition rate (%) was determined 14 days after chemical application using the following formula (Math. 1). [formula]
Wagner pots with an area of […] were filled with paddy soil, followed by addition of water and incorporation of chemical fertilizer (N:P:K = 16:16:16), after which puddling was performed. After that, seeds of Echinochloa crus-galli var. formosensis, broad-leaved weeds (Monochoria vaginalis), and Scirpus juncoides were sown at a depth of 0 cm to 1 cm, 30 seeds each. Immediately after sowing, the pots were flooded and a water depth of approximately 3 cm was maintained. Subsequent management was conducted in a glass greenhouse. Seven days after sowing, an emulsifiable concentrate prepared according to Formulation Example 5 using the compound shown below was diluted with water, and a specified amount of the diluted solution was applied by dropper. The amount of the active ingredient to be applied was equivalent to 120 g per 10 ares. The test was conducted in duplicate for each chemical concentration group, and the herbicidal effect was evaluated 14 days after chemical application using the same criteria as in Test Example 1.

Digitaria ciliaris [4] = assay: Test Example 3: herbicidal effect test by soil application in upland field; conditions: Digitaria ciliaris, 120 g per 10 ares, sprayed one day after sowing, 14 days after application, read-out: weed inhibition rate
Experimental: as §1
(§2) Pots with an area of 36 cm^2 were filled with upland soil (alluvial loam), twenty seeds each of weeds of Digitaria ciliaris, Echinochloa crus-galli, Chenopodium album, and Amaranthus viridis were uniformly mixed with the top 1 cm layer of soil and the surface was lightly pressed down. One day after sowing, an emulsifiable concentrate prepared according to Formulation Example 5 using the compound shown below was diluted with water, and the diluted solution was sprayed onto the soil surface at a rate of 100 liters per 10 ares. The amount of the active ingredient to be applied was equivalent to 120 g per 10 ares. Fourteen days after chemical application, the herbicidal effect was evaluated according to the same criteria as in Test Example 1.

Echinochloa crus-galli [5] = assay: as above; conditions: Echinochloa crus-galli, 120 g per 10 ares, sprayed one day after sowing, 14 days after application, read-out: weed inhibition rate
Experimental: as §1, §2

Digitaria ciliaris [6] = assay: Test Example 4: herbicidal effect test by stem and leaf treatment in upland field; conditions: Digitaria ciliaris; 120 g per 10 ares; sprayed seven days after sowing, upland soil; 14 days after application; read-out: weed inhibition rate
Experimental: as §1
as §2, with “crus-galli,” for “crus-galli, Chenopodium album,”, “Seven days” for “One day”

CC(C)[C@@]12C[C@H](OCc3c(Cl)cccc3Cl)[C@@](C)(C[C@H]1Br)O2 [1-1053, (1R,2S,4S,5R)-5-bromo-2-[(2,6-dichlorophenyl)methoxy]-1-methyl-4-isopropyl-7-oxabicyclo[2.2.1]heptane]
≥ 80%: inhibition at 1200 g/ha (Echinochloa crus-galli [1]) | pest or weed control at 1200 g/ha [2] | inhibition at 1200 g/ha [3] | inhibition at 1200 g/ha (Digitaria ciliaris [4]) | inhibition at 1200 g/ha (Echinochloa crus-galli [5]) | inhibition at 1200 g/ha (Digitaria ciliaris [6])

Cc1cccc(COC2CC3(C(C)C)OC2(C)CC3Br)c1 (stereo not drawn) [1-1344, 5-bromo-1-methyl-2-[(3-methylphenyl)methoxy]-4-isopropyl-7-oxabicyclo[2.2.1]heptane]
≥ 80%: inhibition at 1200 g/ha (Echinochloa crus-galli [1]) | pest or weed control at 1200 g/ha [2] | inhibition at 1200 g/ha [3] | inhibition at 1200 g/ha (Digitaria ciliaris [4]) | inhibition at 1200 g/ha (Echinochloa crus-galli [5]) | inhibition at 1200 g/ha (Digitaria ciliaris [6])

CC(C)C12CC(OCc3cccc(F)c3)C(C)(CC1Br)O2 (stereo not drawn) [1-1356, 5-bromo-2-[(3-fluorophenyl)methoxy]-1-methyl-4-isopropyl-7-oxabicyclo[2.2.1]heptane]
≥ 80%: inhibition at 1200 g/ha (Echinochloa crus-galli [1]) | pest or weed control at 1200 g/ha [2] | inhibition at 1200 g/ha [3] | inhibition at 1200 g/ha (Digitaria ciliaris [4]) | inhibition at 1200 g/ha (Echinochloa crus-galli [5]) | inhibition at 1200 g/ha (Digitaria ciliaris [6])

CC(C)C12CC(OCc3cccc(Br)c3)C(C)(CC1Br)O2 (stereo not drawn) [1-1362, 5-bromo-2-[(3-bromophenyl)methoxy]-1-methyl-4-isopropyl-7-oxabicyclo[2.2.1]heptane]
≥ 80%: inhibition at 1200 g/ha (Echinochloa crus-galli [1]) | pest or weed control at 1200 g/ha [2] | inhibition at 1200 g/ha [3] | inhibition at 1200 g/ha (Digitaria ciliaris [4]) | inhibition at 1200 g/ha (Echinochloa crus-galli [5]) | inhibition at 1200 g/ha (Digitaria ciliaris [6])

Cc1cccc(C)c1CO[C@H]1C[C@@]2(C(C)C)O[C@]1(C)C[C@H]2Br [1-1608, (1R,2S,4S,5R)-5-bromo-2-[(2,6-dimethylphenyl)methoxy]-1-methyl-4-isopropyl-7-oxabicyclo[2.2.1]heptane]
≥ 80%: inhibition at 1200 g/ha (Echinochloa crus-galli [1]) | pest or weed control at 1200 g/ha [2] | inhibition at 1200 g/ha [3] | inhibition at 1200 g/ha (Digitaria ciliaris [4]) | inhibition at 1200 g/ha (Echinochloa crus-galli [5]) | inhibition at 1200 g/ha (Digitaria ciliaris [6])

CC(C)[C@@]12C[C@H](OCc3ccccc3C#N)[C@@](C)(C[C@H]1I)O2 [1-1109, 2-[[(1R,2S,4S,5R)-5-iodo-1-methyl-4-isopropyl-7-oxabicyclo[2.2.1]heptan-2-yl]oxymethyl]benzonitrile]
≥ 80%: inhibition at 1200 g/ha (Echinochloa crus-galli [1]) | pest or weed control at 1200 g/ha [2] | inhibition at 1200 g/ha [3] | inhibition at 1200 g/ha (Digitaria ciliaris [4]) | inhibition at 1200 g/ha (Echinochloa crus-galli [5]) | inhibition at 1200 g/ha (Digitaria ciliaris [6])

CC(C)[C@@]12C[C@H](OCc3ccccc3I)[C@@](C)(C[C@H]1Br)O2 [1-1037, (1R,2S,4S,5R)-5-bromo-2-[(2-iodophenyl)methoxy]-1-methyl-4-isopropyl-7-oxabicyclo[2.2.1]heptane]
≥ 80%: inhibition at 1200 g/ha (Echinochloa crus-galli [1]) | pest or weed control at 1200 g/ha [2] | inhibition at 1200 g/ha [3] | inhibition at 1200 g/ha (Digitaria ciliaris [4]) | inhibition at 1200 g/ha (Echinochloa crus-galli [5]) | inhibition at 1200 g/ha (Digitaria ciliaris [6])

CC(C)C12CC(OCc3c(Cl)cccc3Cl)C(C)(CC1Br)O2 (stereo not drawn) [1-1380, 5-bromo-2-[(2,6-dichlorophenyl)methoxy]-1-methyl-4-isopropyl-7-oxabicyclo[2.2.1]heptane]
≥ 80%: inhibition at 1200 g/ha (Echinochloa crus-galli [1]) | pest or weed control at 1200 g/ha [2] | inhibition at 1200 g/ha [3] | inhibition at 1200 g/ha (Digitaria ciliaris [4]) | inhibition at 1200 g/ha (Echinochloa crus-galli [5]) | inhibition at 1200 g/ha (Digitaria ciliaris [6])

CC(C)C12CC(OCc3ccccc3I)C(C)(CC1Br)O2 (stereo not drawn) [1-1364, 5-bromo-2-[(2-iodophenyl)methoxy]-1-methyl-4-isopropyl-7-oxabicyclo[2.2.1]heptane]
≥ 80%: inhibition at 1200 g/ha (Echinochloa crus-galli [1]) | pest or weed control at 1200 g/ha [2] | inhibition at 1200 g/ha [3] | inhibition at 1200 g/ha (Digitaria ciliaris [4]) | inhibition at 1200 g/ha (Echinochloa crus-galli [5]) | inhibition at 1200 g/ha (Digitaria ciliaris [6])

CC(C)[C@]12C[C@@H](OCc3ccc(Br)cc3)[C@](C)(C[C@@H]1Br)O2 [1-696, (1S,2R,4R,5S)-5-bromo-2-[(4-bromophenyl)methoxy]-1-methyl-4-isopropyl-7-oxabicyclo[2.2.1]heptane]
≥ 80%: inhibition at 1200 g/ha (Echinochloa crus-galli [1]) | pest or weed control at 1200 g/ha [2] | inhibition at 1200 g/ha [3] | inhibition at 1200 g/ha (Digitaria ciliaris [4]) | inhibition at 1200 g/ha (Echinochloa crus-galli [5]) | inhibition at 1200 g/ha (Digitaria ciliaris [6])

COc1cccc(COC2CC3(C(C)C)OC2(C)CC3Br)c1 (stereo not drawn) [1-1350, 5-bromo-2-[(3-methoxyphenyl)methoxy]-1-methyl-4-isopropyl-7-oxabicyclo[2.2.1]heptane]
≥ 80%: inhibition at 1200 g/ha (Echinochloa crus-galli [1]) | pest or weed control at 1200 g/ha [2] | inhibition at 1200 g/ha [3] | inhibition at 1200 g/ha (Digitaria ciliaris [4]) | inhibition at 1200 g/ha (Echinochloa crus-galli [5]) | inhibition at 1200 g/ha (Digitaria ciliaris [6])

CC(C)[C@@]12C[C@H](OCc3c(F)cccc3Br)[C@@](C)(C[C@H]1Br)O2 [1-1609, (1R,2S,4S,5R)-5-bromo-2-[(2-bromo-6-fluorophenyl)methoxy]-1-methyl-4-isopropyl-7-oxabicyclo[2.2.1]heptane]
≥ 80%: inhibition at 1200 g/ha (Echinochloa crus-galli [1]) | pest or weed control at 1200 g/ha [2] | inhibition at 1200 g/ha [3] | inhibition at 1200 g/ha (Digitaria ciliaris [4]) | inhibition at 1200 g/ha (Echinochloa crus-galli [5]) | inhibition at 1200 g/ha (Digitaria ciliaris [6])

Cc1ccccc1CO[C@H]1C[C@@]2(C(C)C)O[C@]1(C)C[C@H]2Br [1-1016, (1R,2S,4S,5R)-5-bromo-1-methyl-2-[(2-methylphenyl)methoxy]-4-isopropyl-7-oxabicyclo[2.2.1]heptane]
≥ 80%: inhibition at 1200 g/ha (Echinochloa crus-galli [1]) | pest or weed control at 1200 g/ha [2] | inhibition at 1200 g/ha [3] | inhibition at 1200 g/ha (Digitaria ciliaris [4]) | inhibition at 1200 g/ha (Echinochloa crus-galli [5]) | inhibition at 1200 g/ha (Digitaria ciliaris [6])

Cc1cccc(C)c1CO[C@H]1C[C@@]2(C(C)C)O[C@]1(C)C[C@H]2I [1-1118, (1R,2S,4S,5R)-2-[(2,6-dimethylphenyl)methoxy]-5-iodo-1-methyl-4-isopropyl-7-oxabicyclo[2.2.1]heptane]
≥ 80%: inhibition at 1200 g/ha (Echinochloa crus-galli [1]) | pest or weed control at 1200 g/ha [2] | inhibition at 1200 g/ha [3] | inhibition at 1200 g/ha (Digitaria ciliaris [4]) | inhibition at 1200 g/ha (Echinochloa crus-galli [5]) | inhibition at 1200 g/ha (Digitaria ciliaris [6])

CC(C)[C@@]12C[C@H](OCc3ccccc3C#N)[C@@](C)(C[C@H]1Br)O2 [1-1043, 2-[[(1R,2S,4S,5R)-5-bromo-1-methyl-4-isopropyl-7-oxabicyclo[2.2.1]heptan-2-yl]oxymethyl]benzonitrile]
≥ 80%: inhibition at 1200 g/ha (Echinochloa crus-galli [1]) | pest or weed control at 1200 g/ha [2] | inhibition at 1200 g/ha [3] | inhibition at 1200 g/ha (Digitaria ciliaris [4]) | inhibition at 1200 g/ha (Echinochloa crus-galli [5]) | inhibition at 1200 g/ha (Digitaria ciliaris [6])

CC(C)[C@@]12C[C@H](OCc3ccccc3Cl)[C@@](C)(CC1Br)O2 (mixture of isomers) [1-1031, (1R,2S,4S,SR)-5-bromo-2-[(2-chlorophenyl)methoxy]-1-methyl-4-isopropyl-7-oxabicyclo[2.2.1]heptane]
≥ 80%: inhibition at 1200 g/ha (Echinochloa crus-galli [1]) | pest or weed control at 1200 g/ha [2] | inhibition at 1200 g/ha [3] | inhibition at 1200 g/ha (Digitaria ciliaris [4]) | inhibition at 1200 g/ha (Echinochloa crus-galli [5]) | inhibition at 1200 g/ha (Digitaria ciliaris [6])

CC(C)[C@]12C[C@@H](OCc3ccc(C#N)cc3)[C@](C)(C[C@@H]1Br)O2 [1-705, 4-[[(1S,2R,4R,5S)-5-bromo-1-methyl-4-isopropyl-7-oxabicyclo[2.2.1]heptan-2-yl]oxymethyl]benzonitrile]
≥ 80%: inhibition at 1200 g/ha (Echinochloa crus-galli [1]) | pest or weed control at 1200 g/ha [2] | inhibition at 1200 g/ha [3] | inhibition at 1200 g/ha (Digitaria ciliaris [4]) | inhibition at 1200 g/ha (Echinochloa crus-galli [5]) | inhibition at 1200 g/ha (Digitaria ciliaris [6])
